From US20040077639A1, “Methods for the treatment of respiratory diseases and conditions using a selective iNOS inhibitor” (priority 2002, published 2004)
“Also recorded” adds a separate entry of the source. Structures can show the parent of a compound that is named as a salt. Where two headings read alike, the source gives them in different places. Blank lines part the entries; values can stand above or below the compound they belong to.

Columns and labels:
i-NOS = i-NOS (Homo sapiens, UniProt P35228); assay: Comparison of i-NOS inhibition with NIL amide and NIL dimethylamide; format: biochemical
[1] = system: nitrite production in human cartilage explants; assay: Human cartilage explant assay (nitrite production after IL-1β); format: cell-based; details: inhibition of nitrite production, IL-1β-stimulated explants
Experimental: Human cartilage Explant Assay
Bone pieces are rinsed twice with Dulbecco's Phosphate Buffered Saline (GibcoBRL) and once with Dulbecco's Modified Eagles Medium (GibcoBRL) and placed into a petri dish with phenol red free Minimum Essential Medium (MEM) (GibcoBRL). Cartilage was cut into small explants of approximately 15-45 mg in weight and one or two explants per well are placed into either 96 or 48 well culture plates with 200-500 μL of culture media per well. The culture media was either a custom modification of Minimum Essential Medium(Eagle) with Earle's salts (GibcoBRL) prepared without L-Arginine, without L-Glutamine and without phenol red or a custom modification of serumless Neuman and Tytell (GibcoBRL) medium prepared without L-arginine, without insulin, without ascorbic acid, without L-glutamine and without phenol red. Both are supplemented before use with 100 μM L-Arginine (Sigma), 2 mM L-glutamine, 1×HL-1 supplement (BioWhittaker), […] ascorbic acid (Sigma) and 150 pg/ml recombinant human IL-1[…] (RD Systems) to induce nitric oxide synthase. Compounds are then added in 10 μL aliquots and the explants incubated at 37° C. with 5% CO2 for 18-24 hours. The day old supernatant is then discarded and replaced with fresh culture media containing recombinant human IL-1β and compound and incubated for another 20-24 hours. […] All samples are done in quadruplicate. Unstimulated controls are cultured in media in the absence of recombinant human IL-1β. IC50 values (Table I) are determined from plotting the percent inhibition of nitrite production at six different concentrations of inhibitor.

airway inflammation = details: murine model of allergic asthma; by down-regulation of chemokine expression; cited from earlier work
[2] = system: LPS-induced increase in plasma nitrite/nitrate levels; assay: In vivo assay: endotoxin (LPS)-treated rats, plasma nitrite/nitrate; set-up: species or system rat; details: oral administration, plasma nitrite/nitrate 5 hours post-treatment
Experimental: Plasma nitrite/nitrate levels can be determined 5 hours post-treatment.

[3] = system: exhaled breath nitric oxide (NO); assay: Clinical study: exhaled breath NO after single oral dose; format: in vivo, human
Experimental: (§1) A single center study was performed at the National Heart and Lung Institute (NHLI) Clinical Studies Unit in London, UK. The clinical protocol was submitted and accepted by the Ethics Committee of the Royal Brompton Hospital Trust, and the study was carried out according to Good Clinical Practice standards. Each subject provided written informed consent.
(§2) Twenty-four, adult, healthy volunteers and 24 patients with mild asthma participated in this study. All subjects were lifelong non-smokers. Asthma patients (n=24) had mild asthma according to American Thoracic Society Criteria, with medication on an as required basis with inhaled albuterol only. […] All asthmatic patients had baseline exhaled breath NO levels of >15 parts per billion (ppb). Healthy control (n=24) subjects were matched for age and sex, and had no clinically significant disease. Healthy subjects were required to have baseline exhaled NO levels between 4 and 9 ppb.
The study included 2 panels of healthy volunteers and asthmatic patients who received in a double-blind, randomized manner, a single dose of oral compound NN or placebo. The study was carried out in two phases according to the dose of compound NN under investigation. […] The study evaluated the tolerability and pharmacokinetics of orally-administered compound NN and monitored levels of exhaled breath NO.
Measurement of exhaled NO: Exhaled NO was measured using a chemoluminescence analyzer (Logan 2000, Rochester, UK) and methods in accordance with International Guidelines. […] Two successive recordings were taken, and the average value was calculated.
Statistical methods for clinical data: Exhaled NO data, including change from baseline and the percentage change, were tested for normality using the Shapiro-Wilks test. […] The area under the curve (AUC) for the change from baseline and the percentage change, and the differences between active and placebo were calculated. […]

[4] = Clinical study: tolerability, FEV1, blood pressure, heart rate, laboratory parameters; format: in vivo, human
Experimental: as §1, §2
The study included 2 panels of healthy volunteers and asthmatic patients who received in a double-blind, randomized manner, a single dose of oral compound NN or placebo. The study was carried out in two phases according to the dose of compound NN under investigation. The first panel consisted of patients with mild-to-moderate asthma (n=12) and healthy subjects (n=12) who received single doses of 20 mg of compound NN and placebo, while the second panel of mild-to-moderate asthmatics (n=12) and healthy subjects (n=12) received single doses of 200 mg of compound NN and placebo. No patient or subject participated in both panels of this study. Evaluation of the first panel was completed before moving on to the second panel. The study evaluated the tolerability and pharmacokinetics of orally-administered compound NN and monitored levels of exhaled breath NO.
Forced expiratory volume in 1 sec (FEV1) and heart rate data had no significant deviations from normality using the Shapiro-Wilks test, therefore parametric statistical methods were used, and the significance of the change from baseline was tested using a paired […]. […]

exhaled NO = details: high doses, literature; cited from earlier work
[5] = Rattus norvegicus, read-out: ED50

Chain of i-NOS (P35228 whole entry): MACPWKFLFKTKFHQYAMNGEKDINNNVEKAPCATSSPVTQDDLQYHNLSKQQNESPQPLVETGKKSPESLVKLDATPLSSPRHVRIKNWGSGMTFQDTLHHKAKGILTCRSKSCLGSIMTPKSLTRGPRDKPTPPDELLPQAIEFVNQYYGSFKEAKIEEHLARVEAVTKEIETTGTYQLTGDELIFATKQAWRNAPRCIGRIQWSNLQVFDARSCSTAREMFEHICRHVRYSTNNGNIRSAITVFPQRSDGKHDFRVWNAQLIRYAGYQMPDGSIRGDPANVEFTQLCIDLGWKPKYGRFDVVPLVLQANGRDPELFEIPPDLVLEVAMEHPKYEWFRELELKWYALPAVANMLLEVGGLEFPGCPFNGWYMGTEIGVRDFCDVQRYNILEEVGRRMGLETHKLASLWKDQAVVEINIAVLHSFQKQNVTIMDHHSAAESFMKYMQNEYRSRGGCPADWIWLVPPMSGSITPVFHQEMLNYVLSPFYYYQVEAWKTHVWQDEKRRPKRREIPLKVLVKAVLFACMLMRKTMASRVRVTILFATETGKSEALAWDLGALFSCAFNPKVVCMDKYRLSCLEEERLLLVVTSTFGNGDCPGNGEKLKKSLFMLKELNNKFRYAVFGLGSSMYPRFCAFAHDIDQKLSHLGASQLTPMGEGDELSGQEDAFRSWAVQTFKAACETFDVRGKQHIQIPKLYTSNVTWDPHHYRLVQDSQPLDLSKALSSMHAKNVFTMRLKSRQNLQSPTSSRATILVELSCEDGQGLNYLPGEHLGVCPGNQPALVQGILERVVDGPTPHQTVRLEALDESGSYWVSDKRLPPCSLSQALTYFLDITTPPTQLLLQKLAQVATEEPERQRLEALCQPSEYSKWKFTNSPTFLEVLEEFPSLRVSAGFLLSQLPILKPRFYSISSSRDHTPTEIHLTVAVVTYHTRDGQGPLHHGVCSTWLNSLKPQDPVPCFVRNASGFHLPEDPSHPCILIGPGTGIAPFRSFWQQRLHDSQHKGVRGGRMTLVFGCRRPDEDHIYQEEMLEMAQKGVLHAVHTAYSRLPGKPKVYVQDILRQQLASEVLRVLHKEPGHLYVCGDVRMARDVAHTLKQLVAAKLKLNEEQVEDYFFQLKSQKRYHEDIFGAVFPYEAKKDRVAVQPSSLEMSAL

Compound: 2S-amino-6-[(1-iminoethyl)amino]-N-(1H-tetrazol-5-yl) hexanamide, hydrate, dihydrochloride [Example NN]
- selectivity compared with NIL amide or NIL dimethylamide (i-NOS): more selective

Compound: CC(=N)NCC(F)=CCC[C@H](N)C(=O)O (mixture of isomers) [Example B, (2S,5E/Z)-2-amino-6-fluoro-7-[(1-iminoethyl)amino]-5-heptenoic acid, Dihydrochloride]
- IC50 ([1]; Homo sapiens): 200 nM

Compound: CC1CCN=C(N)S1 (stereo not shown) [2-amino 5,6-dihydro 6-methyl 4H-1,3-thiazine]
- effect on airway inflammation (airway inflammation): suppressed airway inflammation

Compound: CC(=N)NC/C(F)=C\CC[C@H](N)C(=O)O [Example A, (2S,5E)-2-amino-6-fluoro-7-[(1-iminoethyl)amino]-5-heptenoic acid, dihydrochloride, monohydrate]
- IC50 ([1]; Homo sapiens): 100 nM
- ED50 [2, 5]: < 0.1 mg/kg
- ED50 ([2]; dihydrochloride, monohydrate): <0.1 mg/kg

Compound: CC(=N)NC/C(F)=C/CC[C@H](N)C(=O)O [Example D, (2S,5Z)-2-amino-6-fluoro-7-[(1-iminoethyl)amino]-5-heptenoic acid, trihydrochloride, dihydrate]
- IC50 ([1]; Homo sapiens): 2500 nM
- ED50 [2, 5]: > 10 mg/kg

- melting point: 198 to 200 °C
Compound: CC(=NO)NC/C(F)=C\CC[C@H](N)C(=O)O [Example G, (2S,5E)-2-amino-6-fluoro-7-[(1-hydroximinoethyl)amino]-5-heptenoic acid]
- ED50 [2, 5]: < 0.1 mg/kg

Compound: CC(=N)NC/C(F)=C\CC[C@H](N)C(=O)Nc1nnn[nH]1 [Example H, (2S,5E)-2-amino-6-fluoro-7-[(1-iminoethyl)amino]-N-(1H-tetrazol-5-yl) 5-heptenamide, Dihydrochloride]
- ED50 [2, 5]: < 0.3 mg/kg

Compound: CC(=N)NC/C(F)=C\CC[C@](C)(N)C(=O)O [Example HH, (2S,5E)-2-amino-2-methyl-6-fluoro-7-[(1-iminoethyl)amino]-5-heptenoic acid, Dihydrochloride]
- IC50 ([1]; Homo sapiens): 400 nM
- ED50 [2, 5]: 0.4 mg/kg

Compound: COC[C@](N)(CSCCNC(C)=N)C(=O)O [Example J, 2-[[[2-[(1-Iminoethyl)amino]ethyl]thio]methyl]-O-methyl-D-serine, Dihydrochloride]
- IC50 [1]: 8200 nM

Compound: CC(=N)NC/C=C\CC[C@](C)(N)C(=O)O.Cl.Cl [Example LL, (2S,5Z)-2-amino-2-methyl-7-[(1-iminoethyl)amino]-5-heptenoic acid, Dihydrochloride]
- IC50 ([1]; Homo sapiens): 800 nM
- ED50 [2, 5]: 0.3 mg/kg

Compound: CC(=N)NCCCC[C@H](N)C(=O)Nc1nnn[nH]1 [Example NN, 2S-amino-6-[(1-iminoethyl)amino]-N-(1H-tetrazol-5-yl) hexanamide, hydrate, dihydrochloride]
- change in exhaled NO ([3]; 20 mg and 200 mg single oral doses, healthy volunteers and asthmatics, 72 hour assessment, FIG. 3, hydrate, dihydrochloride): rapid reduction in exhaled NO; also recorded: of rapid onset and dose-related
- inhibition of exhaled NO ([3]; 200 mg single oral dose, asthma): 95%
- duration of decrease in exhaled breath NO ([3]; single oral dose, healthy volunteers and asthmatics): 3 days
- effects on heart rate, blood pressure and FEV1 ([4]; 200 mg oral, FIG. 4): no apparent effects
- effect on haematology or blood biochemistry ([4]; single oral dose): no effect
- tolerability ([4]; single oral dose, healthy volunteers and asthmatics, FIG. 4): well tolerated
- i-NOS inhibitory potency compared with NIL amide or NIL dimethylamide (i-NOS): more potent

Compound: N=C1CCCC[C@H](CCCC[C@@H](N)C(=O)O)N1 [Example V, (α,2S)-.α-aminohexahydro-7-imino-1H-azepine-2-hexanoic acid, Trihydrate Hydrochloride]
- IC50 ([1]; Homo sapiens): < 10000 nM
- ED50 [2, 5]: < 3 mg/kg

Compound: N=C1CCCC[C@@H](CCCC[C@H](N)C(=O)O)N1 [Example W, (αS,2R)-α-aminohexahydro-7-imino-1 H-azepine-2-hexanoic acid, Trihydrate Hydrochloride]
- IC50 ([1]; Homo sapiens): > 30000 nM
- ED50 [2, 5]: > 10 mg/kg

Compound: N=C1CCCC[C@H](CCCC[C@H](N)C(=O)O)N1 [Example X, (αS,2S)-α-aminohexahydro-7-imino-1H-azepine-2-hexanoic acid, Trihydrate Hydrochloride]
- IC50 [1]: < 10000 nM

Compound: Cl.N=C1CCCC[C@H](CCCC[C@@H](N)C(=O)O)N1.O.O.O [Example Y, (αR,2S)-α-aminohexahydro-7-imino-1H-azepine-2-hexanoic acid, Trihydrate Hydrochloride]
- ED50 [2, 5]: < 3 mg/kg

Compound: N=C1CCCC[C@H](CCCC[C@H](N)C(=O)O)N1 [Example Z, (αS,2S)-α-aminohexahydro-7-imino-1H-azepine-2-hexanoic acid, Trihydrate Hydrochloride]
- IC50 ([1]; Homo sapiens): < 10000 nM

Compound: COC(=O)[C@@H](N)CCCNC(=N)N[N+](=O)[O-] [L-NAME]
- inhibition of exhaled NO (exhaled NO): approximately 70%
- effect on airway inflammation (airway inflammation): suppressed airway inflammation

Compound: CCSC(=N)N [S-ethylisothiourea]
- effect on airway inflammation (airway inflammation): suppressed airway inflammation

Compound: N=C(N)NN [amino-guanidine]
- inhibition of exhaled NO (exhaled NO): approximately 70%
